Laboratory results: US20250049932A1, “CYTOTOXICITY TARGETING CHIMERAS FOR FOLATE RECEPTOR-EXPRESSING CELLS” (GLAXOSMITHKLINE INTELLECTUAL PROPERTY DEVELOPMENT LIMITED, priority 2022, published 2025)
Where “and” joins values, the source holds several entries; their conditions need not be identical. Identical values can stand only once.

Target: T1, FOLR (Homo sapiens, UniProt P15328)
T1 construct: Target cells: IGROV1 cells (typically 1000-20,000 cells per well); endogenous in cells; host or cells: IGROV1 cells
T1 sequence (P15328 25-234 limits assumed): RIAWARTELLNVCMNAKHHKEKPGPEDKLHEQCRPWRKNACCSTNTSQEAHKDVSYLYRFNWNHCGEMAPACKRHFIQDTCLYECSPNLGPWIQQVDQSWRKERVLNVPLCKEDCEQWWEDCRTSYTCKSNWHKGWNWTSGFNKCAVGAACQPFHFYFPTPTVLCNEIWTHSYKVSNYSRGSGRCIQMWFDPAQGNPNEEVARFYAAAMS
Test: Antibody dependent cellular cytotoxicity (ADCC) reporter assay
Type: cell-based
Details: IGROV1 target cells; anti-cotinine antibody (SEQ ID NO: 11/12, human IgG1 Fc S239D/I332E); Jurkat FcγRIIIa NFAT-luciferase reporter cells; about 12-18 hours; one value per experimental run; EC50 in molar (M); footnote: pEC50 < 5 = inactive
Method: An antibody dependent cellular cytotoxicity (ADCC) reporter assay was conducted using the following four assay components: (i) ARM compound of Formula (I) targeting FOLR (concentrations ranging from 1 pM to 10 μM); (ii) anti-cotinine antibody having a heavy chain sequence of SEQ ID NO: 11 and a light chain sequence of SEQ ID NO: 12 (rabbit variable region with human IgG1 Fc domain containing DE mutation (S239D/I332E)) (concentrations ranging from 0.01 μg/mL-200 μg/mL); (iii) Target cells: IGROV1 cells (typically 1000-20,000 cells per well); and (iv) Reporter cells—Jurkat cells engineered to express FcγRIIIa with a reporter gene luciferase under the control of the NFAT promoter (typically 3000-75,000 cells per well). Reagents were combined in final volume of 20 μL in 384-well tissue culture treated plate. […]
Luminescence signal was measured on a microplate reader capable of measuring luminescence and signal: background was calculated by dividing the signal of a test well by the signal obtained when no compound of formula (I) was included in the assay. […]
ARMs compounds of Formula (I) were tested for ADCC activity in the above assay in one or more experimental runs and the results are shown in Table 3 below. […] The pEC50 value is the negative log of the EC50 value, wherein the EC50 value is half maximal effective concentration measured in molar (M). […]

Compound	EC50	ADCC Reporter Assay pEC50
CN1C(=O)C[C@H](C(=O)NCCO[C@H]2CC[C@H](OCCCC(=O)N[C@H]3CC[C@H](C(=O)NCCNC(=O)CC[C@H](NC(=O)c4ccc(NCc5cnc6nc(N)[nH]c(=O)c6n5)cc4)C(=O)O)CC3)CC2)[C@H]1c1cccnc1 (racemic) [Example 2, N2-(4-(((2-Amino-4-oxo-3,4-dihydropteridin-6-yl)methyl)amino)benzoyl)-N5-(2-((1R,4S)-4-(4-(((1S,4R)-4-(2-((2S,3S)-1-methyl-5-oxo-2-(pyridin-3-yl)pyrrolidine-3-carboxamido)-ethoxy)cyclohexyl)oxy)butanamido)cyclohexane-1-carboxamido)ethyl)-L-glutamine]	6.31e-08 M and 7.94e-08 M	
CN1C(=O)C[C@H](C(=O)NCCNC(=O)CC[C@H](NC(=O)c2ccc(NCc3cnc4nc(N)[nH]c(=O)c4n3)cc2)C(=O)O)[C@H]1c1cccnc1 [Example 1, N2-(4-(((2-Amino-4-oxo-3,4-dihydropteridin-6-yl)methyl)amino)benzoyl)-N5-(2-((2S,3S)-1-methyl-5-oxo-2-(pyridin-3-yl)pyrrolidine-3-carboxamido)ethyl)-L-glutamine]		4.5 and 4.8
